The series deals with bovine chondroycytes. In words: Biocompatibility of the photoinitiator, tested without polymer, on chondrocytes before and after UVA exposure. The format is cell-based. To be noted: for cell damage (morphology) after light exposure: UVA 3 minutes at 1-3 mW/cm^2. An excerpt:
Although the initiator PHK is approved for dental applications, the initiator was examined without the presence of polymer to ascertain the toxicity of the radical produced to initiate a photopolymerization. The PEOD is very reactive towards the radical so the lack of polymer would make all radicals available to damage cells (a worst case scenario). Three initiator concentrations (0.1, 0.05 and 0.01% (w/w)) were examined.
Chondrocyte isolated from calf shoulders were maintained ex vivo in cell culture medium (DMEM) at 37° C. and 5% CO2. Cells were passaged approximately once a week. Approximately 10,000 cells per well in an 8-well tissue culture plate were seeded. 1-hydroxycylcohexyl-phenyl-ketone (HPK) was added to DMEM to reach 0.1, 0.05 and 0.01% (w/w) concentrations. The cells were incubated for 24 hours in the present of the initiator to examine possible acute cell toxicity. The cells were then exposed to UVA radiation (2 mW/cm^2) for 3 minutes to activate the photoactive initiator.
To determine the effect of photoactive initiator concentration on cells before exposure to light, cells were exposed to a concentration of 0% (w/w), 0.1% (w/w), 0.05% (w/w), and 0.01% (w/w).
The effect of photoactive initiator concentration on cells after exposure to light for four days was determined by exposing cells to a concentration of 0% (w/w), 0.1% (w/w), 0.05% (w/w), and 0.01% (w/w). The cells were compared morphologically and in relation to cell proliferation for 4 days.
Further analysis was made between controls which were a) not exposed to initiator or UVA, b) cells exposed to UVA only and c) cells exposed to UVA in the presence of 0.01% PHK. The effect of photoactive initiator on cells when exposed to no light or photoactive initiator, light only, 0.01% light and initiator, and 24 hours after light exposure was determined.

Consider `O=C(c1ccccc1)C1(O)CCCCC1` [initiator, 1-hydroxycylcohexyl-phenyl-ketone], for which the “effect on proliferation and morphology” value (0.01% PHK with UVA versus no-treatment and UVA-only controls, 24 hours after light exposure) was “does not appear to alter proliferation and morphology”. In addition, the “toxicity to cells before exposure to light” value (0.1, 0.05 and 0.01% (w/w), 24 hours incubation, no light) was “does not appear to be toxic”. Further, the “cell damage (morphology) after light exposure” value was “no damage” (initiator 0.01% versus control), “Variable damage” (initiator 0.05%) and “extensive cell death” (initiator 0.1%).
